Article PMC8781450, “Isoquinoline Alkaloids as Protein Tyrosine Phosphatase Inhibitors from a Deep-Sea-Derived Fungus Aspergillus puniceus” (Marine Drugs, 2022)
≈ marks a conversion by molar mass, not a printed value. Where two headings read alike, the source gives them in different places.

How the values were obtained:
CD45 = target: T1, CD45 (Homo sapiens, UniProt P08575); experiment: Protein phosphatase inhibition assay, CD45
T1 sequence (P08575 26-1306): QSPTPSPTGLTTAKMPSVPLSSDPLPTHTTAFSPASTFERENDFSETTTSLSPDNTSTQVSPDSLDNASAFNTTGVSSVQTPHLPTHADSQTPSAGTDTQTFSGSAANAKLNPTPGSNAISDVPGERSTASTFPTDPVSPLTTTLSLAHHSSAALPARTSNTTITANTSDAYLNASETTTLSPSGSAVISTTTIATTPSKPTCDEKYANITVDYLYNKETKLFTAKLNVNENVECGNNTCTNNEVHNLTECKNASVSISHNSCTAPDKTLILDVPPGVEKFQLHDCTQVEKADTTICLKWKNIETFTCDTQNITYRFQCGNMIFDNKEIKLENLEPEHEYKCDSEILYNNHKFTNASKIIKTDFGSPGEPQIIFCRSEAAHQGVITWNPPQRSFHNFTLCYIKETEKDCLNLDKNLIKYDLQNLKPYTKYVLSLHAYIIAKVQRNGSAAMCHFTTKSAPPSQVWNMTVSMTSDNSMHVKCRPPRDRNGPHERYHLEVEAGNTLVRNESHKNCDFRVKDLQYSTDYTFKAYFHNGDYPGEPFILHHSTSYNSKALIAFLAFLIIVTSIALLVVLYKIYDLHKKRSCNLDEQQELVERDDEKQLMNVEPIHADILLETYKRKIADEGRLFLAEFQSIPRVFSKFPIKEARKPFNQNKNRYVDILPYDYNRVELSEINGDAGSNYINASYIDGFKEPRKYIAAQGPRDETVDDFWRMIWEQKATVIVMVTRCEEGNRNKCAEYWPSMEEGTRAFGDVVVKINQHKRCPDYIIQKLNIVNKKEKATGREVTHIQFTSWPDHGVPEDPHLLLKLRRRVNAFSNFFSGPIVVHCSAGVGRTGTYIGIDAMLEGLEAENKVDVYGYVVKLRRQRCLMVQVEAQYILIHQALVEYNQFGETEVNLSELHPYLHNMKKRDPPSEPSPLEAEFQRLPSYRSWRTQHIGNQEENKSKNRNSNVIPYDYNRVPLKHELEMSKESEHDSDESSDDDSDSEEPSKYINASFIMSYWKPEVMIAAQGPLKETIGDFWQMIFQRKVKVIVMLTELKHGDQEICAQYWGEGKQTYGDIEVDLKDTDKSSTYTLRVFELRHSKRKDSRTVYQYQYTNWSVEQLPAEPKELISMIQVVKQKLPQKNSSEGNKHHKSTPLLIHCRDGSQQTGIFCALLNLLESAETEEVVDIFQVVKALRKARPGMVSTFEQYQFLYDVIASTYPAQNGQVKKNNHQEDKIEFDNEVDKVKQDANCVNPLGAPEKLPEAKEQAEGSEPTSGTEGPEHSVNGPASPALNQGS

PTP1B = target: T2, PTP1B (Homo sapiens, UniProt P18031); experiment: Protein phosphatase inhibition assay, PTP1B
T2 sequence (P18031 1-435): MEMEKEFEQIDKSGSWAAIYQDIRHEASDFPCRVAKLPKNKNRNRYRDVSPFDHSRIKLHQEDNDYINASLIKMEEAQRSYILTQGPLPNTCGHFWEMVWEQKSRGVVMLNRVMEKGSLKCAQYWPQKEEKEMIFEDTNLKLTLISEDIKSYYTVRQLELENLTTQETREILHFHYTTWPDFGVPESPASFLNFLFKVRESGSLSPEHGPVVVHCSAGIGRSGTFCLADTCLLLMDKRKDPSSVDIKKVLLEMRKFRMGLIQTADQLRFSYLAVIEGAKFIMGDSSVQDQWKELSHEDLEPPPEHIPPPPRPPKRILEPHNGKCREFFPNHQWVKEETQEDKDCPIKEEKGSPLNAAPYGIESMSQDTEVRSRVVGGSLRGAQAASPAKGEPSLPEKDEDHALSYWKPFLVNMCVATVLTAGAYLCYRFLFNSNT

SHP1 = SHP1 (Homo sapiens, UniProt P29350); experiment: Protein phosphatase inhibition assay, SHP1
LAR = LAR (Homo sapiens, UniProt P10586); experiment: Protein phosphatase inhibition assay, LAR
TCPTP = target: T3, TCPTP (Homo sapiens, UniProt P17706); experiment: Protein phosphatase inhibition assay, TCPTP
T3 sequence (P17706 1-415): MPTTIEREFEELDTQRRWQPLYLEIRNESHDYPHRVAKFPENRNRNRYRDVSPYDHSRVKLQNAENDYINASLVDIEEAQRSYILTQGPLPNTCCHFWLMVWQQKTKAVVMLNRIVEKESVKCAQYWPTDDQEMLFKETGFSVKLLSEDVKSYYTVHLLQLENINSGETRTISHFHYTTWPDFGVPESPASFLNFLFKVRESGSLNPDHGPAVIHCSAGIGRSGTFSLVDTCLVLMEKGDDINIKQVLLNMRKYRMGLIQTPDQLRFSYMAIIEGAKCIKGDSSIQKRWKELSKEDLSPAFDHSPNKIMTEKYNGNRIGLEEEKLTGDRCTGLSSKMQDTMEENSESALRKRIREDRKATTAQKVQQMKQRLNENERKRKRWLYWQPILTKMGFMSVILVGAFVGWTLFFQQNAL

[1] = Cytotoxicity by CCK-8 method; assay type: cell-based; settings: human, H1975 lung adenocarcinoma cells, read-out: Cytotoxicity (IC50) H1975 Cell (after 24 h)
Description: Cytotoxic activity was evaluated using human lung adenocarcinoma cell line H1975 by CCK-8 method. Briefly, each of the test compounds was dissolved in DMSO and further diluted to give final concentrations of 80, 40, 20, 10, 5, 2.5, and 1.25 µg/mL, respectively. H1975 cells (5 × 10^3 cells/plate) were seeded in 96-well plates and treated with compounds at the indicated concentration for 24 h, and then 10 μL CCK-8 reagent was added to each well, and the plates were incubated at 37 °C for another 4 h. Next, the optical density was measured at a wavelength of 450 nm with the Bio-Rad (Hercules, CA, USA) microplate reader. Dose–response curves were generated, and the IC50 values were calculated from the linear portion of log dose–response curves.

Escherichia coli = experiment: Antibacterial 2-fold dilution assay, E. coli; settings: 12 h, read-out: MIC, Escherichia coli
Description: (§1) Antibacterial activities of 1–14 against E. coli, S. aureus and MRSA were evaluated using the 2-fold dilution assay in 96-microwell plates. Briefly, all the indicator bacteria were cultured on Luria−Bertani (LB) agar plates at 37 °C for 12 h, and then a single colony was picked into LB liquid medium and cultivated on a rotary shaker at 37 °C for 12 h. Then, the bacterial suspensions with LB medium were diluted until the difference of the OD600 values between the bacterial suspensions and the medium was 0.01~0.02. […] The 96-well plates were incubated at 37 °C for 12 h. MIC value was determined as the lowest concentration with no visible bacterial growth. Ampicillin was used as the positive control and DMSO as the negative control. All experiments were performed three times.

[2] = tested on: methicillin-resistant S. aureus (MRSA); experiment: Antibacterial 2-fold dilution assay, MRSA; settings: Staphylococcus aureus, 12 h, read-out: MIC, methicillin-resistant S. aureus (MRSA)
Description: as §1

Staphylococcus aureus = experiment: Antibacterial 2-fold dilution assay, S. aureus; settings: 12 h, read-out: MIC, Staphylococcus aureus
Description: as §1

Chain of LAR (P10586 30-1907): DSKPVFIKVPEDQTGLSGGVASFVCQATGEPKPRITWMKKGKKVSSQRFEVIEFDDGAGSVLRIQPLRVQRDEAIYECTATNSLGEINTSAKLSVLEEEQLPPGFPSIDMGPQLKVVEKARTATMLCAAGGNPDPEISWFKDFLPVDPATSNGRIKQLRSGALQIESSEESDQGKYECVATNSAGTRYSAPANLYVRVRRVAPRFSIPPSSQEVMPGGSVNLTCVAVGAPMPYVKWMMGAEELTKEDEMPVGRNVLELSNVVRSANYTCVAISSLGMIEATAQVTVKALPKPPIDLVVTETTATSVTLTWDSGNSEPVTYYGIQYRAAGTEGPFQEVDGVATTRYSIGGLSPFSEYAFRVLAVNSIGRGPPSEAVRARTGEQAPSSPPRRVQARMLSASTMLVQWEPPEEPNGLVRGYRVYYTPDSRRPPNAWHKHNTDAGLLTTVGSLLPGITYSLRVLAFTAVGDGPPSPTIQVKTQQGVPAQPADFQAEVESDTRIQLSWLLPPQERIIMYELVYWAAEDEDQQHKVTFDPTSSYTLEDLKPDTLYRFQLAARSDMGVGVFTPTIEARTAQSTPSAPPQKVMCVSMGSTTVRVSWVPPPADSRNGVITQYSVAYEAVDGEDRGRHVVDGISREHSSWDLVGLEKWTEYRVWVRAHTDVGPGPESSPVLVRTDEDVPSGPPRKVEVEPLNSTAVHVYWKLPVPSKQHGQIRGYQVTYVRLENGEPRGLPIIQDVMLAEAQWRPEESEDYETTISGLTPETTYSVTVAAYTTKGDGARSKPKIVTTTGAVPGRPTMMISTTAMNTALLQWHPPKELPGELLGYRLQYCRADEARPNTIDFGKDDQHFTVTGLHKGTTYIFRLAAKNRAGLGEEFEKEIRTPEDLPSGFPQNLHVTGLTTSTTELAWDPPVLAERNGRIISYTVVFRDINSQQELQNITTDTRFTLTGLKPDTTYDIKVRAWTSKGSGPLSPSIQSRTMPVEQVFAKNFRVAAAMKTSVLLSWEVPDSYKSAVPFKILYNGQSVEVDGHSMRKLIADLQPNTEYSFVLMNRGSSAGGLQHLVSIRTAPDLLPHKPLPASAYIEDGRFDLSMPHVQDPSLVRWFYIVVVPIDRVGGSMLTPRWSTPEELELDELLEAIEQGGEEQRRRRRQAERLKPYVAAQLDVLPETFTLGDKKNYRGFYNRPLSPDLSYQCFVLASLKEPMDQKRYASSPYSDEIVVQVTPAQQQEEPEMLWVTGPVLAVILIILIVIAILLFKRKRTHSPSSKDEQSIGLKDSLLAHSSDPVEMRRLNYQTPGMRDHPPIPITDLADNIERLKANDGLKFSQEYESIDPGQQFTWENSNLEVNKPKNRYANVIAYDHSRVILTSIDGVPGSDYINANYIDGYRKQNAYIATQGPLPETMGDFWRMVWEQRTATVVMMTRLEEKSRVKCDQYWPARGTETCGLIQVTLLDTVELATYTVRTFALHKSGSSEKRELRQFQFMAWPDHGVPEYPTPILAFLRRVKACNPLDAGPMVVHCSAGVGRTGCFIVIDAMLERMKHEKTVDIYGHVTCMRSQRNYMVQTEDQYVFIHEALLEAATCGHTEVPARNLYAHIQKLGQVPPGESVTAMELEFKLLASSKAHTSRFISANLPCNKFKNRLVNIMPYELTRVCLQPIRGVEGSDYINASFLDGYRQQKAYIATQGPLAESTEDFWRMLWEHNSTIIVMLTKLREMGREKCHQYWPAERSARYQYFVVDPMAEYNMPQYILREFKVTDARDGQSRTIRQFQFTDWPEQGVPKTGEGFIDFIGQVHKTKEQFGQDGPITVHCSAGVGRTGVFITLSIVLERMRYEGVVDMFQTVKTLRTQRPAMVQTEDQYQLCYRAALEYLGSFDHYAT
Chain of SHP1 (P29350 whole entry): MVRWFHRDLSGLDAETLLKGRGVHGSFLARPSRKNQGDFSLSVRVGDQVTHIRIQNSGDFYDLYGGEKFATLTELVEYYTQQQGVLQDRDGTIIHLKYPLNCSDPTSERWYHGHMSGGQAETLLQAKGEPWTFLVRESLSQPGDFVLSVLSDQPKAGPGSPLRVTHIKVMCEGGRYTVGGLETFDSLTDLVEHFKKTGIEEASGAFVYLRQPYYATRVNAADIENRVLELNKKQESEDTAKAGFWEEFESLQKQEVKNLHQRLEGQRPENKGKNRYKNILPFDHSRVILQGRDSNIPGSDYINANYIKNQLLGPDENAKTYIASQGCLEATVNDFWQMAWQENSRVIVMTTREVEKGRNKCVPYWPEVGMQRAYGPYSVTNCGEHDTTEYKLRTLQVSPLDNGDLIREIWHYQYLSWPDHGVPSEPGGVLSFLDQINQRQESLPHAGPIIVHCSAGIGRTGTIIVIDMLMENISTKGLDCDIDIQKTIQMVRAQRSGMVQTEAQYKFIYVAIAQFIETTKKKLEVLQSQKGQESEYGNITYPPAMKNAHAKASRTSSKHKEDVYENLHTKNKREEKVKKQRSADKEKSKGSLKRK

Row | IC50 (CD45; read-out: Inhibitory Effect against Phosphatases (IC50) CD45) [µM] | IC50 (PTP1B) [µM] | IC50 (SHP1) [µM] | IC50 (LAR) [µM] | IC50 (TCPTP) [µM] | IC50 (CD45) [µM] | MIC (Escherichia coli) [µg/mL] | MIC [2] [µg/mL] | MIC (Staphylococcus aureus) [µg/mL] | SMILES | IC50 at 24 h [1] [µM] | IC50 (SHP1; read-out: Inhibitory Effect against Phosphatases (IC50) SHP1) [µM] | IC50 (TCPTP; read-out: Inhibitory Effect against Phosphatases (IC50) TCPTP) [µM]
1 | 0.29 | – | – | – | – | – | – | – | – | CC(=O)c1ccc(NC2=C(Cl)C(=O)c3ccccc3C2=O)cc1 [AACQ, 2-[(4-acetylphenyl)amino]-3-chloronaphthoquinone, reference compound] | – | – | –
2 | – | 182 | 38.3 | 100 | 197 | 29.7 | – | – | – | COc1cc(O)c2cnccc2c1 [Compound 1, 6-methoxy-8-hydroxy-isoquinolin] | 76.2 | – | –
3 | – | > 200 | > 200 | > 200 | > 200 | > 200 | – | – | – | COc1cc2ccncc2c(O)c1C [Compound 2, 6-methoxy-7-methyl-8-hydroxy-isoquinolin] | > 80 | – | –
4 | – | 64.5 | 20.7 | 21.9 | > 200 | 8.4 | – | – | – | COc1cc2ccncc2c(O)c1Cc1c(OC)cc2ccncc2c1O [Compound 3, Puniceusine C] | 71.3 | – | –
5 | – | 150 | 130 | – | > 200 | 5.6 | 100 (≈ 276 µM) | – | – | COc1cc2ccncc2c(O)c1Cc1c(OC)cc(O)c2cnccc12 [Compound 4, Puniceusine D] | 11 | – | –
6 | – | 200 | 145 | > 200 | > 200 | 103 | – | – | – | COc1cc2ccncc2c(O)c1Cc1c(OC)c(C)c(O)c2cnccc12 [Compound 5, Puniceusine E] | > 80 | – | –
7 | – | > 200 | 200 | > 200 | > 200 | > 200 | – | – | – | COc1cc2ccncc2c(O)c1CC(C)C(=O)O (stereo not drawn) [Compound 6, Puniceusine F] | > 80 | – | –
8 | – | > 200 | > 200 | > 200 | > 200 | > 200 | – | – | – | COc1cc2ccncc2c2c(C)c(O)c(C)cc12 [Compound 7, Puniceusine G] | > 80 | – | –
9 | – | 180 | 100 | > 200 | > 200 | 49 | – | – | – | COc1cc2ccncc2c(O)c1Cc1c(O)cc(O)c(OC)c1C(=O)C(C)=O [Compound 8, Puniceusine H] | > 80 | – | –
10 | – | 68.8 | 41.8 | > 200 | 57.7 | 27.2 | – | – | – | COc1cc2ccncc2c(O)c1Cc1c(O)cc(O)c2c1[C@@H](C)OC2 [Compound 9, Puniceusine I] | > 80 | – | –
11 | – | > 200 | > 200 | 100 | > 200 | 30.8 | – | – | – | CCC(=O)c1c(C)c(O)c(Cc2c(OC)cc3ccncc3c2O)c(O)c1O [Compound 10, Puniceusine J] | > 80 | – | –
12 | – | 190 | 145 | > 200 | > 200 | 100 | – | – | – | COc1cc2ccncc2c(O)c1Cc1c(O)c(OC)c2c(c1O)C(=O)O[C@H]2[C@@H](C)O [Compound 11, Puniceusine K] | > 80 | – | –
13 | – | 170 | 117 | 150 | > 200 | 38.5 | – | – | – | CCc1cc(O)c(Cc2c(OC)cc3ccncc3c2O)c(=O)o1 [Compound 12, Puniceusine L] | > 80 | – | –
14 | – | 37.9 | 40.3 | 32.6 | > 200 | 11.1 | – | – | – | CCc1oc(=O)c(Cc2c(OC)cc3ccncc3c2O)c(O)c1C [Compound 13, Puniceusine M] | > 80 | – | –
15 | – | > 200 | > 200 | > 200 | > 200 | 200 | 100 | 100 | 100 | CCCCC(CC)COC(=O)CC[n+]1ccc2cc(OC)c(C)c(O)c2c1 (stereo not drawn) [Compound 14, Puniceusine N] | > 80 | – | –
16 | – | – | – | – | – | – | – | – | – | [Na+].[Na+].[Na+].[O]=[V]([O-])([O-])[O-] [Na3VO4, reference compound] | – | 4.4 | 2.4
